molecular target: Recombinant human HSD17B13 enzyme (Homo sapiens (Human), UniProt Q7Z5P4); experiment: HSD17b13 NAD(P)H-Glo Biochemical Assay; conditions: 50 uM estradiol, 1 mM NAD+; read-out: HSD17β13 IC50
Method in brief: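 Recombinant human HSD17B13 was pre-incubated with inhibitor for 20 min at RT in 20 mM Tris pH 7.4 with 0.002% Tween-20 and 0.02% BSA. Reaction then ran with 50 uM estradiol and 1 mM NAD+ (final) for 3 h at 37° C. NADH formed was detected by NAD(P)H-Glo luminescence after 1 h at RT.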

Sequence of Recombinant human HSD17B13 enzyme (Q7Z5P4 20-300): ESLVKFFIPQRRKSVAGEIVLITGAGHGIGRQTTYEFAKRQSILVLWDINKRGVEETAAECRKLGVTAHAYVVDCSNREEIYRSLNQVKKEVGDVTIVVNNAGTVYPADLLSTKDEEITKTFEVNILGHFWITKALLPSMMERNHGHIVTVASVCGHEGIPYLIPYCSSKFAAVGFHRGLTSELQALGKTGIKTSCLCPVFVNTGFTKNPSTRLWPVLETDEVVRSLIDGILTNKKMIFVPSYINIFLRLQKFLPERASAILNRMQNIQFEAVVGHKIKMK

Structure (SMILES)	IC50 [nM]
CN(c1ccc2c(c1)c(C(F)(F)F)nn2-c1cc(C(F)(F)F)c(F)c(O)c1F)C1CCOCC1 [Compound 19.71, 2,6-Difluoro-3-(5-(methyl(tetrahydro-2H-pyran-4-yl)amino)-3-(trifluoromethyl)-1H-indazol-1-yl)-5-(trifluoromethyl)phenol]	100 to 1000
C[C@@H]1COCCN1c1cc2cnn(-c3cc(O)c(F)c(C(F)(F)F)c3)c2cn1 [Compound 21.55, (R)-2-Fluoro-5-(5-(3-methyl-morpholino)-1H-pyrazolo[3,4-c]pyridin-1-yl)-3-(trifluoro-methyl)phenol]	100 to 1000
Cc1nn(-c2cc(C(F)(F)F)c(F)c(O)c2F)c2cnc(N3CCC(Oc4ccccc4)CC3)cc12 [Compound 19.55, 2,6-Difluoro-3-(3-methyl-5-(4-phenoxypiperidin-1-yl)-1H-pyrazolo[3,4-c]pyridine-1-yl)-5-(trifluoromethyl)phenol]	100 to 1000
Oc1c(F)c(-n2cnc3cc(N4CCOCC45CC5)ncc32)cc(C(F)(F)F)c1F [Compound 21.60, 3-(6-(7-Oxa-4-azaspiro[2.5]-octan-4-yl)-3H-imidazo[4,5-c]pyridin-3-yl)-2,6-difluoro-5-(trifluoromethyl)phenol]	1000 to 30000
Oc1ccc(-c2cc3cnn(-c4cc(O)c(F)c(F)c4)c3cc2Cl)cc1Cl [Compound 4.16, 5-(6-Chloro-5-(3-chloro-4-hydroxyphenyl)-1H-indazol-1-yl)-2,3-difluorophenol]	100 to 1000
COc1nn(-c2cc(C(F)(F)F)c(F)c(O)c2F)c2ccc(N(C)C3CCOCC3)cc12 [Compound 19.72, 2,6-Difluoro-3-(3-methoxy-5-(methyl(tetrahydro-2H-pyran-4-yl)amino)-1H-indazol-1-yl)-5-(trifluoromethyl)phenol]	100 to 1000
O=S1(=O)CCN(c2ccc3c(cnn3-c3cc(O)c(F)c(F)c3)c2)CC1 [Compound 21.08, 4-(1-(3,4-Difluoro-5-hydroxy-phenyl)-1H-indazol-5-yl)-thiomorpholine 1,1-dioxide]	1000 to 30000
CCCCCOc1ncc2c(n1)c(C)nn2-c1cc(C(F)(F)F)c(F)c(O)c1F [Compound 19.117, 2,6-Difluoro-3-(3-methyl-5-(pentyloxy)-1H-pyrazolo[4,3-d]pyrimidin-1-yl)-5-(trifluoromethyl)phenol]	100 to 1000
CN(c1ccc2c(c1)c(C#N)nn2-c1cc(C(F)(F)F)c(F)c(O)c1F)C1CCOCC1 [Compound 19.90, 1-(2,4-Difluoro-3-hydroxy-5-(trifluoromethyl)phenyl)-5-(methyl(tetrahydro-2H-pyran-4-yl)amino)-1H-indazole-3-carbonitrile]	100 to 1000
CN(C)S(=O)(=O)C1CN(c2ccc3c(cnn3-c3cc(O)c(F)c(F)c3)c2)C1 [Compound 21.36, 1-(1-(3,4-Difluoro-5-hydroxy-phenyl)-1H-indazol-5-yl)-N,N-dimethylazetidine-3-sulfon-amide]	100 to 1000
Cc1nn(-c2cc(C(F)(F)F)c(F)c(O)c2F)c2cnc(N3CCN(S(=O)(=O)c4ccccc4)CC34CC4)cc12 [Compound 19.83, 2,6-Difluoro-3-(3-methyl-5-(7-(phenylsulfonyl)-4,7-diazaspiro[2.5]octan-4-yl)-1H-pyrazolo[3,4-c]pyridin-1-yl)-5-(trifluoromethyl)phenol]	< 100
CS(=O)(=O)N1CCN(c2cc3cnn(-c4cccc(O)c4F)c3cn2)CC1 [Compound 19.11, 2-Fluoro-3-(5-(4-(methylsulfonyl)piperazin-1-yl)-1H-pyrazolo[3,4-c]pyridine-1-yl)phenol]	1000 to 30000
CS(=O)(=O)N1CCN(c2cc3cnn(-c4cc(O)c(F)c(F)c4)c3cc2F)CC1 [Compound 21.24, 2,3-Difluoro-5-(6-fluoro-5-(4-(methylsulfonyl)piperazin-1-yl)-1H-indazol-1-yl)phenol]	100 to 1000
Cc1nn(-c2cc(C(F)(F)F)c(F)c(O)c2F)c2cnc(N3CCO[C@H](c4ccccc4)C3)cc12 [Compound 19.108, (R)-2,6-Difluoro-3-(3-methyl-5-(2-phenylmorpholino)-1H-pyrazolo[3,4-c]pyridin-1-yl)-5-(trifluoromethyl)phenol]	< 100
CNS(=O)(=O)C1CN(c2ccc3c(cnn3-c3cc(O)c(F)c(F)c3)c2)C1 [Compound 21.35, 1-(1-(3,4-Difluoro-5-hydroxy-phenyl)-1H-indazol-5-yl)-N-methylazetidine-3-sulfonamide]	1000 to 30000
Cc1nn(-c2cc(O)c(F)c(C(F)(F)F)c2)c2cnc(N3CCN(S(C)(=O)=O)CC3)cc12 [Compound 21.50, 2-Fluoro-5-(3-methyl-5-(4-(methylsulfonyl)piperazin-1-yl)-1H-pyrazolo[3,4-c]-pyridine-1-yl)-3-(trifluoro-methyl)phenol]	100 to 1000
Oc1cc(-n2ncc3cc(N4CCC5(CC4)CC5)ncc32)cc(C(F)(F)F)c1F [Compound 21.44, 5-(5-(6-Azaspiro[2.5]octan-6-yl)-1H-pyrazolo[3,4-c]pyridine-1-yl)-2-fluoro-3-(trifluoro-methyl)phenol]	< 100

Structure (SMILES)	IC50 [nM]
CS(=O)(=O)Nc1ccc(-c2ccc3c(cnn3-c3ccc(F)c(O)c3)c2)cn1 [Compound 11.02, N-(5-(1-(4-Fluoro-3-hydroxyphenyl)-1H-indazol-5-yl)pyridine-2-yl)methanesulfonamide]	1000 to 30000
Cc1nn(-c2ccc(Cl)c(O)c2F)c2cc(F)c(N3CCN(S(C)(=O)=O)CC34CC4)cc12 [Compound 19.104, 6-Chloro-2-fluoro-3-(6-fluoro-3-methyl-5-(7-(methylsulfonyl)-4,7-diazaspiro[2.5]octan-4-yl)-1H-indazol-1-yl)phenol]	< 100
O=C(O)c1cccc(-c2ccc3c(cnn3-c3ccc(F)c(O)c3)c2)c1 [Compound 5.24, 3-(1-(4-Fluoro-3-hydroxyphenyl)-1H-indazol-5-yl)benzoic acid]	1000 to 30000
Cc1nn(-c2cc(O)c(F)c(F)c2)c2ccc(N3CCN(S(C)(=O)=O)CC3)cc12 [Compound 21.01, 2,3-Difluoro-5-(3-methyl-5-(4-(methylsulfonyl)piperazin-1-yl)-1H-indazol-1-yl)phenol]	100 to 1000
Oc1cc(-n2ncc3cc(N4CCC(O)CC4)ccc32)ccc1F [Compound 20.01, 1-(1-(4-Fluoro-3-hydroxy-phenyl)-1H-indazol-5-yl)-piperidin-4-ol]	1000 to 30000
O=S(=O)(CC1CC1)NC1CN(c2cc3cnn(-c4cc(O)c(F)c(F)c4)c3cc2Cl)C1 [Compound 21.37, N-(1-(6-Chloro-1-(3,4-difluoro-5-hydroxyphenyl)-1H-indazol-5-yl)azetidin-3-yl)-1-cyclo-propylmethanesulfonamide]	100 to 1000
CS(=O)(=O)N1CCN(c2cc3cnn(-c4ccc(F)c(O)c4)c3cn2)CC1 [Compound 19.09, 2-Fluoro-5-(5-(4-(methylsulfonyl)piperazin-1-yl)-1H-pyrazolo[3,4-c]pyridine-1-yl)phenol]	1000 to 30000
CS(=O)(=O)Nc1ccccc1-c1ccc2c(cnn2-c2ccc(F)c(O)c2)c1 [Compound 5.14, N-(2-(1-(4-Fluoro-3-hydroxyphenyl)-1H-indazol-5-yl)phenyl)methanesulfonamide]	1000 to 30000
Oc1ccc(-c2ccc3c(cnn3-c3ccc(F)c(O)c3)c2)c(C(F)(F)F)c1 [Compound 5.16, 2-Fluoro-5-(5-(4-hydroxy-2-(trifluoromethyl)phenyl)-1H-indazol-1-yl)phenol]	100 to 1000
COc1ccc(-c2ccc3c(cnn3-c3ccc(F)c(O)c3)c2)cc1 [Compound 5.22, 2-Fluoro-5-(5-(4-methoxyphenyl)-1H-indazol-1-yl)phenol]	100 to 1000
CS(=O)(=O)N1CCN(c2cc3cn(-c4cc(O)cc(OC(F)(F)F)c4)nc3cn2)CC1 [Compound 19.13, 3-(5-(4-(Methylsulfonyl)piperazin-1-yl)-2H-pyrazolo[3,4-c]pyridin-2-yl)-5-(trifluoromethoxy)phenol]	1000 to 30000
O=C(O)COc1ccc(-c2ccc3c(cnn3-c3ccc(F)c(O)c3)c2)cc1 [Compound 5.29, 2-(4-(1-(4-Fluoro-3-hydroxyphenyl)-1H-indazol-5-yl)phenoxy)acetic acid]	1000 to 30000
Cc1nn(-c2cc(C(F)(F)F)c(F)c(O)c2F)c2cnc(N3CCOC4(CCC4)C3)nc12 [Compound 19.82, 2,6-Difluoro-3-(3-methyl-5-(5-oxa-8-azaspiro[3.5]nonan-8-yl)-1H-pyrazolo[4,3-d]pyrimidin-1-yl)-5-(trifluoromethyl)phenol]	< 100
COc1ccccc1-c1ccc2c(cnn2-c2ccc(F)c(O)c2)c1 [Compound 5.20, 2-Fluoro-5-(5-(2-methoxyphenyl)-1H-indazol-1-yl)phenol]	100 to 1000
Cc1nn(-c2ccc(F)c(O)c2)c2cc(F)c(N3CCN(S(C)(=O)=O)CC34CC4)cc12 [Compound 19.103, 2-Fluoro-5-(6-fluoro-3-methyl-5-(7-(methylsulfonyl)-4,7-diazaspiro[2.5]octan-4-yl)-1H-indazol-1-yl)phenol]	100 to 1000
C[C@H]1COCCN1c1cc2cnn(-c3cc(O)c(F)c(C(F)(F)F)c3)c2cn1 [Compound 21.56, (S)-2-Fluoro-5-(5-(3-methyl-morpholino)-1H-pyrazolo[3,4-c]pyridin-1-yl)-3-(trifluoro-methyl)phenol]	100 to 1000

same assay, conditions: read-out: HSD17β13 inhibition at 30 uM

Structure (SMILES)	inhibition at 30 µM [%]
CS(=O)(=O)N1CCC(C(=O)O)(c2ccc3c(cnn3-c3cc(O)c(F)c(F)c3)c2)CC1 [Compound 28, 4-(1-(3,4-Difluoro-5-hydroxyphenyl)-1H-indazol-5-yl)-1-(methylsulfonyl)piperidine-4-carboxylic Acid]	49
CS(=O)(=O)N1CCN(c2cc3cn(-c4cccc(O)c4C#N)nc3cn2)CC1 [Compound 19.40, 2-Hydroxy-6-(5-(4-(methylsulfonyl)piperazin-1-yl)-2H-pyrazolo[3,4-c]pyridine-2-yl)benzonitrile]	39

same assay, conditions: read-out: HSD17β13 inhibition at 100 uM

Structure (SMILES)	inhibition at 100 µM [%]
CC(=O)N1CCN(c2ccc3c(cnn3-c3ccc(F)c(O)c3)c2)CC1 [Compound 20.05, 1-(4-(1-(4-Fluoro-3-hydroxyphenyl)-1H-indazol-5-yl)piperazin-1-yl)ethan-1-one]	< 20

Reference: patent US20240034736A1, “HSD17B13 INHIBITORS AND USES THEREOF” (FL2022-001, Inc., priority 2020, published 2024)
